Source: ChEMBL document CHEMBL1777794, “Optimization of the physicochemical and pharmacokinetic attributes in a 6-azauracil series of P2X7 receptor antagonists leading to the discovery of the clinical candidate CE-224,535” (Bioorg Med Chem Lett, 2011)
pIC50: −log10 of the molar value. Blank lines part the entries; values can stand above or below the compound they belong to. Calls of active or inactive are those of the source. The calls are words filed in the database; no cut-off is given here.

Tests used:
[1] = Fraction unbound in human plasma; type: ADME, cell-free
[2] = Oral bioavailability in dog; type: ADME, organism-based, Canis lupus familiaris; settings: in vivo
[3] = Cmax in monkey; type: ADME, organism-based, Macaca mulatta; settings: rhesus monkey, in vivo
[4] = Half life in monkey; type: ADME, organism-based, Macaca mulatta; settings: rhesus monkey, in vivo
[5] = Cmax in dog; type: ADME, organism-based, Canis lupus familiaris; settings: in vivo
[6] = Cmax in rat at 5 mg/kg, po; type: ADME, organism-based; design: dose 5 mg/kg, route oral; settings: in vivo
in vivo [7] = settings: rat, plasma
P2X purinoceptor 7 [8] = molecular target: T1, P2X purinoceptor 7 (Homo sapiens, UniProt Q99572); test: Antagonist activity at P2X7 receptor expressed in HEK293 cells assessed as inhibition of ATP-induced YOPRO-1 uptake; type: functional, cell-based
T1 sequence (Q99572 whole entry): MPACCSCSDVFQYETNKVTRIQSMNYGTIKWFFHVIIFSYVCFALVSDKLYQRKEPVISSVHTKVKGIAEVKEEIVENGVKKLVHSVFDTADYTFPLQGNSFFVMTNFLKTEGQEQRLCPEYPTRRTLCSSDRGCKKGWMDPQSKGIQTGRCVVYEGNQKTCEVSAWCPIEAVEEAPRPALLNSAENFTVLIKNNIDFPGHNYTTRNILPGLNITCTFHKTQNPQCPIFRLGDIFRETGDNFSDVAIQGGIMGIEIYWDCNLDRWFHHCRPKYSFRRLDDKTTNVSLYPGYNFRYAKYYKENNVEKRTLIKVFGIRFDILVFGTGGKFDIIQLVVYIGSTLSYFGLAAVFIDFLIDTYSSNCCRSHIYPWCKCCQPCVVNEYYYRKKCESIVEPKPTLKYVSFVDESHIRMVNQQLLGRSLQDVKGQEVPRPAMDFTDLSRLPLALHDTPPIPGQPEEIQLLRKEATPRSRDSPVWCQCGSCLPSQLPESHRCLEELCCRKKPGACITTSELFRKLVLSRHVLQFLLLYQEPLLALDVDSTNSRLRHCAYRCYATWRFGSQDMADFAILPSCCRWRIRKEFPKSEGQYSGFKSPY

[9] = Oral bioavailability in rat at 5 mg/kg; type: ADME, organism-based; settings: in vivo
[10] = Half life in rat; type: ADME, organism-based; settings: in vivo
[11] = Plasma clearance in monkey; settings: rhesus monkey
P2X purinoceptor 7 [12] = molecular target: T1, P2X purinoceptor 7; test: (§1) Antagonist activity at P2X7 receptor in human LPS-stimulated monocytes assessed as inhibition of ATP-induced IL1-beta release by ELISA in presence of human blood; type: functional, cell-based
[13] = molecular target: T2, P2X purinoceptor 7 (Homo sapiens) (UniProt Q99572); test: as §1; type: functional, cell-based
T2 sequence (whole entry): T1 sequence (Q99572 whole entry)

[14] = Volume of distribution at steady state in dog; type: ADME, organism-based, Canis lupus familiaris; settings: in vivo, read-out: Vdss
[15] = Volume of distribution at steady state in monkey; type: ADME, organism-based, Macaca mulatta; settings: rhesus monkey, in vivo; read-out: Vdss
P2X purinoceptor 7 [16] = molecular target: T1, P2X purinoceptor 7; test: Antagonist activity at P2X7 receptor in human LPS-stimulated monocytes assessed as inhibition of ATP-induced IL1-beta release by ELISA; type: functional, cell-based
in vivo [17] = settings: dog, plasma
[18] = Oral bioavailability in monkey; type: ADME, organism-based, Macaca mulatta; settings: rhesus monkey, in vivo
[19] = Half life in dog; type: ADME, organism-based, Canis lupus familiaris; settings: in vivo
[20] = Volume of distribution at steady state in rat; type: ADME, organism-based; settings: in vivo, read-out: Vdss
[21] = molecular target: T2, P2X purinoceptor 7 (Homo sapiens); test: Antagonist activity at P2X7 receptor in human monocytes assessed as inhibition of LPS/ATP-induced IL1-beta release at 1 uM by ELISA; type: functional, cell-based
[22] = molecular target: T2, P2X purinoceptor 7 (Homo sapiens); test: Antagonist activity at P2X7 receptor in human LPS-stimulated monocytes assessed as inhibition of ATP-induced IL1-beta release at 5 uM by ELISA; type: functional, cell-based
[23] = molecular target: Voltage-gated inwardly rectifying potassium channel KCNH2 (Homo sapiens, UniProt Q12809); test: Inhibition of human ERG at 1 uM
Sequence of Voltage-gated inwardly rectifying potassium channel KCNH2 (Q12809 whole entry): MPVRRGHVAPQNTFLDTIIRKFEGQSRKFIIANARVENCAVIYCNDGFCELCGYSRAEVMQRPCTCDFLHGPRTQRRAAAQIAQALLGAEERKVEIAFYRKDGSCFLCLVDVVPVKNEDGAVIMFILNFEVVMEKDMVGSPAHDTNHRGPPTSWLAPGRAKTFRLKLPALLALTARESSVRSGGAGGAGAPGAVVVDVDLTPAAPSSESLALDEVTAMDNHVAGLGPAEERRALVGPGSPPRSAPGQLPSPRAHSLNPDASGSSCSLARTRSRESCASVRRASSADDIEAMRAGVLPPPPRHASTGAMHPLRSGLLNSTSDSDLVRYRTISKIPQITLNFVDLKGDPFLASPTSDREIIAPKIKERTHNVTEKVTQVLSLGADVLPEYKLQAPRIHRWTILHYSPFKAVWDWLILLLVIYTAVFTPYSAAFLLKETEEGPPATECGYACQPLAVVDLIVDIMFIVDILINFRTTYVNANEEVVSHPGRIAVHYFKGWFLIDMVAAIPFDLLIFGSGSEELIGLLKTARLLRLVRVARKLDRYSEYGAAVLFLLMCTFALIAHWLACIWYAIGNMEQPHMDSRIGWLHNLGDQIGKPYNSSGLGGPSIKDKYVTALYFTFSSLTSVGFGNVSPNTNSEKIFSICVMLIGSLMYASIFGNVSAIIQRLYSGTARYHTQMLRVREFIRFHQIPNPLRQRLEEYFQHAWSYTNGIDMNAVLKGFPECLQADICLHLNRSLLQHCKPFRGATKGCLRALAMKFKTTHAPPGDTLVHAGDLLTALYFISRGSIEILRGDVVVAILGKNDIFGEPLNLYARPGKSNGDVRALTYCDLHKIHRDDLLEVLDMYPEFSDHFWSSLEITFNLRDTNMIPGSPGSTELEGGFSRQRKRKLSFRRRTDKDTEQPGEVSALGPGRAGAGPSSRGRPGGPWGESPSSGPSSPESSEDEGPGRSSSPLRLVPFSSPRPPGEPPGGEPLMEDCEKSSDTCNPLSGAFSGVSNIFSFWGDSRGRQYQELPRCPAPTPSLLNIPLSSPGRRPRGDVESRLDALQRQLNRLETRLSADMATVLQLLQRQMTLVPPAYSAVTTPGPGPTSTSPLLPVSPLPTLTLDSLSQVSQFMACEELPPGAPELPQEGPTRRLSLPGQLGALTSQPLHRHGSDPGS

Cytochrome P450 3A4 = Cytochrome P450 3A4 (Homo sapiens, UniProt P08684); test: Inhibition of human CYP3A4; type: ADME
Sequence of Cytochrome P450 3A4 (P08684 whole entry): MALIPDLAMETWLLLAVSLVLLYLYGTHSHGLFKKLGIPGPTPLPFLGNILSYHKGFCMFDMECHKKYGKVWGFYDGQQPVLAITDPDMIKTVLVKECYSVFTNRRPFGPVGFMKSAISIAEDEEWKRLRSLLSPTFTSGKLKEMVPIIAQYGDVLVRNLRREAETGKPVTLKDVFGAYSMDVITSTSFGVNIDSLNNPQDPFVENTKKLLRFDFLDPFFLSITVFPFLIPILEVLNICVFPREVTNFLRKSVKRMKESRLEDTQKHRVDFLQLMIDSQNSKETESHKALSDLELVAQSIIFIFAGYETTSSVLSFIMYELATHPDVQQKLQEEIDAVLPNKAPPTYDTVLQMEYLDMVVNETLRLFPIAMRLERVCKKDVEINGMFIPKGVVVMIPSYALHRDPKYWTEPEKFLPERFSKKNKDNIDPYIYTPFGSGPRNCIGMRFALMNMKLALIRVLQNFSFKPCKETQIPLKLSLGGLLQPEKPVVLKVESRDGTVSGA

Salmonella typhimurium = test: Mutagenic activity in Salmonella Typhimurium by Ames assay; type: toxicity, organism-based; settings: salmonella enterica subsp. enterica serovar typhimurium
[24] = Trough plasma concentration in rheumatoid arthritis patient at 500 mg BID for 12 weeks; type: ADME; settings: human, read-out: Cmin
[25] = molecular target: T3, P2X purinoceptor 7 (Mus musculus) (UniProt Q9Z1M0); test: Antagonist activity at P2X7 receptor in mouse LPS-stimulated peritoneal macrophages assessed as inhibition of ATP-induced IL1-beta release at 10 uM by ELISA; type: functional
T3 sequence (whole entry): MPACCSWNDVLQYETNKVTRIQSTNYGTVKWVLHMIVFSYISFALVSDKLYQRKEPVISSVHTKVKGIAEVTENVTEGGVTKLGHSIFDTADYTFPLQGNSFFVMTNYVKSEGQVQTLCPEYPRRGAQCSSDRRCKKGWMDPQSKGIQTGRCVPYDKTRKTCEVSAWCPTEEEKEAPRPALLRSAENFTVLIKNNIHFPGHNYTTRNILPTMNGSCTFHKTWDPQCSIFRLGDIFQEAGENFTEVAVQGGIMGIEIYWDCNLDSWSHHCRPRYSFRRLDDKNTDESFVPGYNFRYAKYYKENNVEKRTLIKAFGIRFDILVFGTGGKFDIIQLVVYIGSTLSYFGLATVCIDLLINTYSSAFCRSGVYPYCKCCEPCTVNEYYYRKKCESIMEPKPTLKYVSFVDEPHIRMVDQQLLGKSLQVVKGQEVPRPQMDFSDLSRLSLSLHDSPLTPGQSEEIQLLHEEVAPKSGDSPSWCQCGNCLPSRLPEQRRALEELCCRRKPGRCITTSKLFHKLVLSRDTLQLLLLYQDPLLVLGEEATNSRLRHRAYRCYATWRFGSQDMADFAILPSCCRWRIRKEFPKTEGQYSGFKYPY

Cytochrome P450 2D6 = Cytochrome P450 2D6 (Homo sapiens, UniProt P10635); test: Inhibition of human CYP2D6; type: ADME
Sequence of Cytochrome P450 2D6 (P10635 whole entry): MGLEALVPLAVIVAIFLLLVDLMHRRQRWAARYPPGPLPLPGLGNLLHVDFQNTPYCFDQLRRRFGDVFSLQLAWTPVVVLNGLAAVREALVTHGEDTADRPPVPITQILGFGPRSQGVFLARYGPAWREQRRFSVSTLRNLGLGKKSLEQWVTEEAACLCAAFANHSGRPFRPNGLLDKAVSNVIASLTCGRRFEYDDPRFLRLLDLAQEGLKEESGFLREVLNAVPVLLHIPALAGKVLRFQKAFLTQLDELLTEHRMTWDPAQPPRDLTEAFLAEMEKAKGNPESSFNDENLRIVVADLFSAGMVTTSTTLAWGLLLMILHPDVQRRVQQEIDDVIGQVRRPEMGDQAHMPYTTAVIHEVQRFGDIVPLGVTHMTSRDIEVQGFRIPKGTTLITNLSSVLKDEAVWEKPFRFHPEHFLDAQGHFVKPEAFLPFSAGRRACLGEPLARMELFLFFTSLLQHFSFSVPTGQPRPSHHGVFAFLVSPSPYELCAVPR

Cytochrome P450 2C9 = Cytochrome P450 2C9 (Homo sapiens, UniProt P11712); test: Inhibition of human CYP2C9; type: ADME
Sequence of Cytochrome P450 2C9 (P11712 whole entry): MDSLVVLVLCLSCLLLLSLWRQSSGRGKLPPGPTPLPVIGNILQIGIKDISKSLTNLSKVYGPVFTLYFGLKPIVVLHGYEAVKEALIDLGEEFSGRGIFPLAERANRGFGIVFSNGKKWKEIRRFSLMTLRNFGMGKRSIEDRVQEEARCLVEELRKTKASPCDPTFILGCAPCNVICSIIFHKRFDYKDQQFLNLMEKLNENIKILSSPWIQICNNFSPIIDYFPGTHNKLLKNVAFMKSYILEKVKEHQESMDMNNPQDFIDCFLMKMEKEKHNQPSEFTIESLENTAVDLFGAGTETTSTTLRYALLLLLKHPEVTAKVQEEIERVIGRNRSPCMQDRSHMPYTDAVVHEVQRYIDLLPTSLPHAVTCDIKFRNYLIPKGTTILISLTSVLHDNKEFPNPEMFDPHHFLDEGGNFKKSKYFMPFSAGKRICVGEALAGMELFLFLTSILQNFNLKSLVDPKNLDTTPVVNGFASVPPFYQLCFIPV

Cytochrome P450 1A2 = molecular target: T4, Cytochrome P450 1A2 (Homo sapiens, UniProt P05177); test: Inhibition of human CYP1A2; type: ADME
T4 sequence (P05177 whole entry): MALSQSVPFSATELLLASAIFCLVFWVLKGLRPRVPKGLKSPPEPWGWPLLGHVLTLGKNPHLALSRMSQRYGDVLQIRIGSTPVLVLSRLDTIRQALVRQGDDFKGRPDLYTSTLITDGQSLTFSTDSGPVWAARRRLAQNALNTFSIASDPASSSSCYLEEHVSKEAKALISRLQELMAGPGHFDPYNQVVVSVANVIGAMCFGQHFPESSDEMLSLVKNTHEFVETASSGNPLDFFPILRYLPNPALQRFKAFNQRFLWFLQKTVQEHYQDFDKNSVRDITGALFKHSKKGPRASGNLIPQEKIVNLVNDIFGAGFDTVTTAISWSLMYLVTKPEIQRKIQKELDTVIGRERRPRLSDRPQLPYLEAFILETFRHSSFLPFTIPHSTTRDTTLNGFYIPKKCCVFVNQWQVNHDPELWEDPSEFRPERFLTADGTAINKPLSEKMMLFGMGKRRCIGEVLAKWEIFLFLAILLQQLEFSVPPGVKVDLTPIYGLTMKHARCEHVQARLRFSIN

Cytochrome P450 2C19 = Cytochrome P450 2C19 (Homo sapiens, UniProt P33261); test: Inhibition of human CYP2C19; type: ADME
Sequence of Cytochrome P450 2C19 (P33261 whole entry): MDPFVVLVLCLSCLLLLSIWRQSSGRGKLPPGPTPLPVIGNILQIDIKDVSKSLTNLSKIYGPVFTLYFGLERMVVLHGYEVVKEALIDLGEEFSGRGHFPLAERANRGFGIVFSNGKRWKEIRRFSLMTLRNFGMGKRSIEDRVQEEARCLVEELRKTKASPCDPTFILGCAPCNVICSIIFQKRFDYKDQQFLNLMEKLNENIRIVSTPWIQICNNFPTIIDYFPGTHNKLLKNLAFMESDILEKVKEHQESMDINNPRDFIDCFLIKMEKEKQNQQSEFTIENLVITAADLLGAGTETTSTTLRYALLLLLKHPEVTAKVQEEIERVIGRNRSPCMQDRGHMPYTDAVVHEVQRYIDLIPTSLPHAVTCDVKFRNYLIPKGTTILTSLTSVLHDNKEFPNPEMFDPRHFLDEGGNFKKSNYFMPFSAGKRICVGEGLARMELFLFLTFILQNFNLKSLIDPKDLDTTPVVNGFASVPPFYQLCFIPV

Rattus norvegicus = test: Toxicity in rat at 500 mg/kg, po qd for 4 days; type: organism-based; design: dose 500 mg/kg, route oral; settings: in vivo, 96 h

Compound: O=C(NCC1(O)CCCCCC1)c1cc(-n2ncc(=O)[nH]c2=O)ccc1F
- inhibition [21]: 20%

Compound: COC[C@H](O)Cn1c(=O)cnn(-c2ccc(Cl)c(C(=O)NCC3(O)CCCCCC3)c2)c1=O [CE-224535]
- fraction unbound [1]: 0.27
- inhibition (INH) [23]: Not Active
- bioavailability [2]: 59%
- Cmax [3]: 550 ng/mL
- half-life [4]: 46.2 min
- pIC50 (Cytochrome P450 3A4): < 4.52
- Cmax [5]: 3500 ng/mL
- Cmax [6]: 210 ng/mL
- pIC50 (P2X purinoceptor 7 [8]): 8.40
- Activity (Salmonella typhimurium): Non-toxic
- bioavailability [9]: 2.6%
- concentration at 2016 h [24]: 519 nM
- half-life [10]: 144 min
- inhibition [25]: Active
- pIC50 (Cytochrome P450 2D6): < 4.52
- pIC50 (Cytochrome P450 2C9): < 4.52
- pIC50 (P2X purinoceptor 7 [12]): 9.10
- IC90 [13]: 4.7 nM
- Vd [14]: 0.61 L/kg
- Vd [15]: 0.68 L/kg
- pIC50 (P2X purinoceptor 7 [16]): 8.85
- pIC50 (Cytochrome P450 1A2): < 4.52
- bioavailability [18]: 22%
- pIC50 (Cytochrome P450 2C19): < 4.52
- half-life [19]: 27.6 min
- Vd [20]: 7.6 L/kg
- Activity (Rattus norvegicus): Non-toxic

Compound: CCCCCNC(=O)c1cc(-n2ncc(=O)[nH]c2=O)ccc1Cl
- pIC50 (P2X purinoceptor 7 [16]): 5.55

Compound: CCCCNC(=O)c1cc(-n2ncc(=O)[nH]c2=O)ccc1Cl
- inhibition [22]: 0%

Compound: Cn1c(=O)cnn(-c2ccc(Cl)c(C(=O)NCC3(O)CCCCCC3)c2)c1=O
- pIC50 (P2X purinoceptor 7 [16]): 7.38

Compound: N#Cc1ccc(-n2ncc(=O)[nH]c2=O)cc1C(=O)NCC1(O)CCCCCC1
- inhibition [21]: 0%

Compound: CCCCC(CC)CNC(=O)c1cc(-n2ncc(=O)[nH]c2=O)ccc1Cl (stereo unspecified)
- pIC50 (P2X purinoceptor 7 [8]): 5.96

The next lines start with the values.

- fraction unbound [1]: 0.18
- bioavailability [2]: 84%
- Cmax [3]: 600 ng/mL
- half-life [4]: 204 min
- Cmax [5]: 7400 ng/mL
- Cmax [6]: 1300 ng/mL
- clearance (in vivo [7]): 20 mL/min/kg
- pIC50 (P2X purinoceptor 7 [8]): 7.82
- bioavailability [9]: 75%
- half-life [10]: 192 min
- clearance [11]: 21 mL/min/kg
- pIC50 (P2X purinoceptor 7 [12]): 6.35
- IC90 [13]: 1000 nM
- Vd [14]: 0.6 L/kg
- Vd [15]: 1.5 L/kg
- pIC50 (P2X purinoceptor 7 [16]): 7.08
- clearance (in vivo [17]): 3.8 mL/min/kg
- bioavailability [18]: 72%
- half-life [19]: 228 min
- Vd [20]: 8.5 L/kg
Compound: O=C(NCC1(O)CCCCCC1)c1cc(-n2ncc(=O)[nH]c2=O)ccc1Cl

- inhibition [22]: 0%
Compound: O=C(NCCCc1ccccc1)c1cc(-n2ncc(=O)[nH]c2=O)ccc1Cl

- inhibition [22]: 19%
Compound: CCCCC(CC)COC(=O)c1cc(-n2ncc(=O)[nH]c2=O)ccc1Cl (stereo unspecified)

- inhibition [22]: 15%
Compound: O=C(NCc1ccccc1)c1cc(-n2ncc(=O)[nH]c2=O)ccc1Cl

- inhibition [22]: 0%
Compound: CCCCC(CC)CNC(=O)c1cccc(-n2ncc(=O)[nH]c2=O)c1 (stereo unspecified)

- pIC50 (P2X purinoceptor 7 [12]): 6.73
- pIC50 (P2X purinoceptor 7 [16]): 7.07
Compound: CCn1c(=O)cnn(-c2ccc(Cl)c(C(=O)NCC3(O)CCCCCC3)c2)c1=O

- inhibition [22]: 0%
Compound: CCCCC(CC)CN(C)C(=O)c1cc(-n2ncc(=O)[nH]c2=O)ccc1Cl (stereo unspecified)

- pIC50 (P2X purinoceptor 7 [16]): 6.15
Compound: Cc1ccc(-n2ncc(=O)[nH]c2=O)cc1C(=O)NCC1(O)CCCCCC1
